Source: patent EP4205753A1, “ANTIVIRAL PLANT EXTRACT COMPOSITION AND METHOD FOR PREPARING SUCH COMPOSITION” (priority 2021, dated 2023)
Like-named read-outs stand apart in the source and are kept apart here.

Tests used:
[1] = test system: SARS-CoV-2
[2] = test system: SARS-CoV-2; experiment: microbe, parasite or virus in culture; settings: Severe acute respiratory syndrome coronavirus 2, Vero C1008, 55 h, read-out: viability in comparison with non-infected cells

Row | SMILES | cell viability in comparison with non-infected cells ([1]; 1 µM) [%] | cell viability in comparison with non-infected cells ([1]; 10 µM) [%] | viability at 25 µM [2] [%]
1 | C=C[C@H](OC(C)=O)c1ccc(OC(C)=O)cc1 [AAC, acetoxychavicol acetate] | 59 | 66 | –
2 | CCC(CC)COC(=O)[C@H](C)N[P@](=O)(OC[C@H]1O[C@@](C#N)(c2ccc3c(N)ncnn23)[C@H](O)[C@@H]1O)Oc1ccccc1 [Remdesivir] | – | – | 97
